Data reported in article PMC5840262, “Design, Synthesis and Evaluation of Branched RRWQWR-Based Peptides as Antibacterial Agents Against Clinically Relevant Gram-Positive and Gram-Negative Pathogens” (Frontiers in Microbiology, 2018).
Where two headings read alike, the source gives them in different places. Ends that are not written are not given here.

Assays:
Format in all cases: cell-based
[1] = tested on: Klebsiella pneumoniae clinical isolate 50,424
Procedure: (§1) For the clinical isolates, we used 20 different isolates from the Public Health Reference Laboratory collection of the Secretaría de Salud del Distrito (SdSD; Bogotá, Colombia). The samples were collected from June to December 2016. For each isolate, the patient parameters (age, gender and location) and the culture site were recorded for epidemiologic monitoring (Table 1). All isolates had been previously tested for antibiotic sensitivity at the Public Health Microbiology Laboratory using either the Phoenix™ system (Gram-positive) or the VITEK 2 system (Gram-negative).
(§2) We screened all five peptides against the ATCC reference strains and the clinical isolates according to Method M7-A7 of the National Committee for Clinical Laboratory Standards (CLSI, [2007]). The MIC50 and MBC values were determined using a broth microdilution and growth inhibition method previously reported by Leon-Calvijo et al. ([2015]), with some modifications (Wiegand et al., [2008]). Briefly, the MIC50 experiments comprised a liquid-inhibition growth assay in a sterile, untreated, 96-well flat-bottom tissue culture plate. The bacteria were cultured overnight n Mueller Hinton agar; three colonies were transferred to 8 mL of Mueller Hilton broth and incubated at 37°C until the mid-exponential phase of growth. The turbidity of the cultures was measured and adjusted spectrophotometrically to a McFarland standard of 0.5, and then diluted to a final concentration of 5 × 10^7 colony forming units (CFU) per well. Stock solutions (2,000 μM) of each test peptide were serially diluted to final concentrations (per well) of 200, 100, 50, 25, 12.5, and 6.25 μM. Each concentration was evaluated in duplicate and each assay was performed in triplicate.
(§3) Wells containing Mueller Hilton broth with bacterial inoculum only served as bacterial-growth controls. Additional controls included Mueller Hilton broth alone (as blank) and Mueller Hilton broth with ciprofloxacin (2 μg/mL; as positive control). The microplate was incubated for 24 h at 37°C, and growth inhibition was measured by monitoring the optical density at 620 nm (OD620). The MIC50 was defined as the peptide concentration at which bacterial growth was inhibited by 50%.
(§4) To determine the MBC, an aliquot from each well of the MIC50 assay was spread onto Mueller Hilton agar. After 18 h at 37°C, the concentration that inhibited bacterial growth was determined. Each of these tests was performed four times. MBC was defined as the lowest concentration of peptide at which the number of bacteria was reduced by 99.9% in vitro (European Committee for Antimicrobial Susceptibility Testing, [2000]).

[2] = tested on: Pseudomonas aeruginosa clinical isolate 48,220
Procedure: as §1, §2, §3, §4

[3] = tested on: Klebsiella pneumoniae clinical isolate 50,181
Procedure: as §1, §2, §3, §4

[4] = tested on: Klebsiella pneumoniae clinical isolate 51,009
Procedure: as §1, §2, §3, §4

[5] = tested on: Klebsiella pneumoniae clinical isolate 51,048
Procedure: as §1, §2, §3, §4

[6] = tested on: Pseudomonas aeruginosa clinical isolate 48,526
Procedure: as §1, §2, §3, §4

[7] = tested on: Staphylococcus aureus clinical isolate 43,062
Procedure: as §1, §2, §3, §4

[8] = tested on: Staphylococcus aureus clinical isolate 48,575
Procedure: as §1, §2, §3, §4

[9] = tested on: Pseudomonas aeruginosa clinical isolate 47,661
Procedure: as §1, §2, §3, §4

[10] = tested on: Pseudomonas aeruginosa clinical isolate 48,221
Procedure: as §1, §2, §3, §4

[11] = tested on: Staphylococcus aureus clinical isolate 52,013
Procedure: as §1, §2, §3, §4

[12] = tested on: Enterococcus faecium clinical isolate 1,461
Procedure: as §1, §2, §3, §4

[13] = tested on: Pseudomonas aeruginosa clinical isolate 48,458
Procedure: as §1, §2, §3, §4

[14] = tested on: Staphylococcus aureus clinical isolate 48,577
Procedure: as §1, §2, §3, §4

[15] = tested on: Enterococcus faecium clinical isolate 1,462
Procedure: as §1, §2, §3, §4

[16] = tested on: Enterococcus faecium clinical isolate 550
Procedure: as §1, §2, §3, §4

[17] = tested on: Staphylococcus aureus clinical isolate 43,337
Procedure: as §1, §2, §3, §4

RWQWRWQWR [PLS]
MBC ([1]; clinical isolate 50,424, 18 h): >100 µM | MIC50 ([1]; clinical isolate 50,424, 24 h): 5.6 µM | MBC ([2]; clinical isolate 48,220, 18 h): >100 µM | MIC50 ([2]; clinical isolate 48,220, 24 h): >100 µM | MBC ([3]; clinical isolate 50,181, 18 h): >100 µM | MIC50 ([3]; clinical isolate 50,181, 24 h): >100 µM | MBC ([4]; clinical isolate 51,009, 18 h): 100.0 µM | MIC50 ([4]; clinical isolate 51,009, 24 h): 25.6 µM | MBC ([5]; clinical isolate 51,048, 18 h): >100 µM | MIC50 ([5]; clinical isolate 51,048, 24 h): 11.7 µM | MBC ([6]; clinical isolate 48,526, 18 h): 100.0 µM | MIC50 ([6]; clinical isolate 48,526, 24 h): >100 µM | MBC ([7]; clinical isolate 43,062, 18 h): 100.0 µM | MIC50 ([7]; clinical isolate 43,062, 24 h): 50.4 µM | MBC ([8]; clinical isolate 48,575, 18 h): 100.0 µM | MIC50 ([8]; clinical isolate 48,575, 24 h): 36.5 µM | MBC ([9]; clinical isolate 47,661, 18 h): >100 µM | MIC50 ([9]; clinical isolate 47,661, 24 h): 75.0 µM | MBC ([10]; clinical isolate 48,221, 18 h): >100 µM | MIC50 ([10]; clinical isolate 48,221, 24 h): >100 µM | MBC ([11]; clinical isolate 52,013, 18 h): 100.0 µM | MIC50 ([11]; clinical isolate 52,013, 24 h): 8.3 µM | MBC ([12]; clinical isolate 1,461, 18 h): 100.0 µM | MIC50 ([12]; clinical isolate 1,461, 24 h): >100 µM | MBC ([13]; clinical isolate 48,458, 18 h): >100 µM | MIC50 ([13]; clinical isolate 48,458, 24 h): >100 µM | MBC ([14]; clinical isolate 48,577, 18 h): 100.0 µM | MBC ([15]; clinical isolate 1,462, 18 h): 100.0 µM | MIC50 ([15]; clinical isolate 1,462, 24 h): 5.7 µM | MBC ([16]; clinical isolate 550, 18 h): 100.0 µM | MIC50 ([16]; clinical isolate 550, 24 h): >100 µM | MBC ([17]; clinical isolate 43,337, 18 h): 50.0 µM | MIC50 ([17]; clinical isolate 43,337, 24 h): 13.0 µM

(RRWQWR)4K2Ahx2C2 (disulfide) [LfcinB (20–25)4, branched tetrameric peptide (RRWQWR)4K2Ahx2C2, two dimers linked by a cysteine disulfide bridge]
MIC50 ([1]; K. pneumoniae isolate 50,424, broth microdilution, 24 h 37°C, OD620, 50% growth inhibition): 7.8 µM | MBC ([1]; K. pneumoniae isolate 50,424, plated on agar 18 h 37°C, 99.9% reduction): 100.0 µM | MIC50 ([2]; P. aeruginosa isolate 48,220, broth microdilution, 24 h 37°C, OD620, 50% growth inhibition): 12.6 µM | MBC ([2]; P. aeruginosa isolate 48,220, plated on agar 18 h 37°C, 99.9% reduction): 25.0 µM | MIC50 ([3]; K. pneumoniae isolate 50,181, broth microdilution, 24 h 37°C, OD620, 50% growth inhibition): 5.5 µM | MBC ([3]; K. pneumoniae isolate 50,181, plated on agar 18 h 37°C, 99.9% reduction): 100.0 µM | MIC50 ([4]; K. pneumoniae isolate 51,009, broth microdilution, 24 h 37°C, OD620, 50% growth inhibition): 1.6 µM | MBC ([4]; K. pneumoniae isolate 51,009, plated on agar 18 h 37°C, 99.9% reduction): 25.0 µM | MIC50 ([5]; K. pneumoniae isolate 51,048, broth microdilution, 24 h 37°C, OD620, 50% growth inhibition): 5.2 µM | MBC ([5]; K. pneumoniae isolate 51,048, plated on agar 18 h 37°C, 99.9% reduction): 50.0 µM | MIC50 ([6]; P. aeruginosa isolate 48,526, broth microdilution, 24 h 37°C, OD620, 50% growth inhibition): 24.9 µM | MBC ([6]; P. aeruginosa isolate 48,526, plated on agar 18 h 37°C, 99.9% reduction): >100 µM | MIC50 ([7]; S. aureus isolate 43,062, broth microdilution, 24 h 37°C, OD620, 50% growth inhibition): 6.7 µM | MBC ([7]; S. aureus isolate 43,062, plated on agar 18 h 37°C, 99.9% reduction): 12.5 µM | MIC50 ([8]; S. aureus isolate 48,575, broth microdilution, 24 h 37°C, OD620, 50% growth inhibition): 9.2 µM | MBC ([8]; S. aureus isolate 48,575, plated on agar 18 h 37°C, 99.9% reduction): 12.5 µM | MIC50 ([9]; P. aeruginosa isolate 47,661, broth microdilution, 24 h 37°C, OD620, 50% growth inhibition): 7.5 µM | MBC ([9]; P. aeruginosa isolate 47,661, plated on agar 18 h 37°C, 99.9% reduction): 25.0 µM | MIC50 ([10]; P. aeruginosa isolate 48,221, broth microdilution, 24 h 37°C, OD620, 50% growth inhibition): 11.9 µM | MBC ([10]; P. aeruginosa isolate 48,221, plated on agar 18 h 37°C, 99.9% reduction): 50.0 µM | MIC50 ([11]; S. aureus isolate 52,013, broth microdilution, 24 h 37°C, OD620, 50% growth inhibition): 6.7 µM | MBC ([11]; S. aureus isolate 52,013, plated on agar 18 h 37°C, 99.9% reduction): 12.5 µM | MIC50 ([12]; E. faecium isolate 1,461, broth microdilution, 24 h 37°C, OD620, 50% growth inhibition): >100 µM | MBC ([12]; E. faecium isolate 1,461, plated on agar 18 h 37°C, 99.9% reduction): 12.5 µM | MIC50 ([13]; P. aeruginosa isolate 48,458, broth microdilution, 24 h 37°C, OD620, 50% growth inhibition): 72.8 µM | MBC ([13]; P. aeruginosa isolate 48,458, plated on agar 18 h 37°C, 99.9% reduction): >100 µM | MIC50 ([14]; S. aureus isolate 48,577, broth microdilution, 24 h 37°C, OD620, 50% growth inhibition): 6.3 µM | MBC ([14]; S. aureus isolate 48,577, plated on agar 18 h 37°C, 99.9% reduction): 100.0 µM | MIC50 ([15]; E. faecium isolate 1,462, broth microdilution, 24 h 37°C, OD620, 50% growth inhibition): >100 µM | MBC ([15]; E. faecium isolate 1,462, plated on agar 18 h 37°C, 99.9% reduction): 12.5 µM | MIC50 ([16]; E. faecium isolate 550, broth microdilution, 24 h 37°C, OD620, 50% growth inhibition): >100 µM | MBC ([16]; E. faecium isolate 550, plated on agar 18 h 37°C, 99.9% reduction): 12.5 µM | MIC50 ([17]; S. aureus isolate 43,337, broth microdilution, 24 h 37°C, OD620, 50% growth inhibition): 6.3 µM | MBC ([17]; S. aureus isolate 43,337, plated on agar 18 h 37°C, 99.9% reduction): 12.5 µM
